# According to US20110065739A1, “NOVEL ISOXAZOLE DRIVATIVE” (priority 2008, published 2011):
# Structures can show the parent of a compound that is named as a salt.
# Biological target: T1, human GPR120 (Homo sapiens, UniProt Q5NUL3)
# T1 construct: expressed in transfected cells
# T1 sequence (Q5NUL3 1-361): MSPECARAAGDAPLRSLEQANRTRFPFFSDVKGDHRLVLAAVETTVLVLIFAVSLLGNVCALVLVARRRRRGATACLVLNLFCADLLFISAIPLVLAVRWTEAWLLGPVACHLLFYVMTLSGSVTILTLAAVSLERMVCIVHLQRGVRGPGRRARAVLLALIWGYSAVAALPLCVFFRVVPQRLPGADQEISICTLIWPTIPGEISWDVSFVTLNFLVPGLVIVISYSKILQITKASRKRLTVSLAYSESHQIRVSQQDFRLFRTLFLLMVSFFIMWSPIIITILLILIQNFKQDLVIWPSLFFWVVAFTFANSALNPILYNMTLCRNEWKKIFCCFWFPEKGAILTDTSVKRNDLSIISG
# Assay: Measurement of intracellular calcium concentration (FLIPR), GPR120 agonist action
# Type: cell-based
# Details: 10 μmol/l test compound, human GPR120 expression CHO cells, Fluo-4 AM
# Experimental: Using Lipofectamine 2000 (Invitrogen), cDNA of GPR120 receptor was transfected into CHO/NFAT-BLA cells, and drug-resistant cells were isolated to obtain GPR120 stable expression strains. The GPR120-expressed CHO cells were cultured in DMEM/F12 medium containing 10% fetal bovine serum, 100 units/ml penicillin, 0.1 mg/ml streptomycin sulfate, 250 μg/ml Zeocin, 500 μg/mL Geneticin and 15 mM HEPES. On the day before the measurement day, 4 μM Fluo-4 AM (fluorescence calcium indicator reagent) was incubated to be introduced into the human GPR120 expression CHO cells plated at 20000 cells per well of a 96-well black plate (ViewPlate; Packard) in the presence of 2.5 mM probenecid in a CO2 incubator for 1 hour. To the cells was added the test compound diluted with HBSS solution containing 20 mM HEPES and 2.5 mM probenecid. Variations in the intracellular calcium concentration were measured by Fluorescence Imaging Plate Reader (FLIPR; Molecular Devices) to examine the agonist action, and EC50 values were calculated.
row,Agonistic activity at 10 μmol/l (%),Compound
1,98%,5-(4-(2-(3-ethylphenyl)-1-methylethoxy)phenyl)isoxazol-3-ol [Example 35]
2,84%,5-(4-(2-(3-isopropoxyphenyl)propoxy)phenyl)-isoxazol-3-ol [Example 33]
3,101%,5-(4-(2-(4-methylphenoxy)propyl)phenyl)isoxazol-3-ol [Example 14]
4,91%,"5-{4-[(2,2-difluoro-2-{3-[(1-methylethyl)oxy]phenyl}ethyl)oxy]phenyl}isoxazol-3-ol [Example 30]"
5,93%,5-{4-[(2-fluoro-2-{3-[(1-methylethyl)oxy]phenyl}ethyl)oxy]phenyl}isoxazol-3-ol [Example 31]
6,110%,"COc1cccc(C(F)COc2ccc(-c3cc(O)no3)cc2)c1 (centres unmarked) [Example 2, 5-(4-(2-fluoro-2-(3-methoxyphenyl)ethoxy)phenyl)isoxazol-3-61]"
7,91%,"Cc1cccc(OC(C)Cc2ccc(-c3cc(O)no3)cc2)c1 (centres unmarked) [Example 11, 5-(4-(2-(3-methylphenoxy)propyl)phenyl)isoxazol-3-01]"
8,96%,"CC(Cc1ccc(-c2cc(O)no2)cc1)Oc1ccc(Cl)cc1 (centres unmarked) [Example 16, 5-(4-(2-(4-chlorophenoxy)propyl)phenyl)isoxazol-3-01]"
9,97%,"CC(Cc1ccc(-c2cc(O)no2)cc1)Oc1ccc(Cl)cc1F (centres unmarked) [Example 17, 5-(4-(2-(4-chloro-2-fluorophenoxy)propyl)phenyl)isoxazol-3-01]"
10,97%,"CC(Cc1ccc(-c2cc(O)no2)cc1)Oc1ccc(Cl)cc1Cl (centres unmarked) [Example 18, 5-(4-(2-(2,4-dichlorophenoxy)propyl)phenyl)isoxazol-3-01]"
11,96%,CC(Cc1ccc(-c2cc(O)no2)cc1)Oc1cccc(OC(F)(F)F)c1 (centres unmarked) [Example 19]
12,94%,CC(C)Oc1cccc(C[C@@H](C)Oc2ccc(-c3cc(O)no3)cc2)c1 [Example 20]
13,93%,"C[C@H](Cc1cccc(OC2CC2)c1)Oc1ccc(-c2cc(O)no2)cc1 [Example 22, 5-[4-({(1R)-1-methyl-2-[3-(cyclopropyloxy)phenyl]-1-methylethyl]oxy)phenyl}isoxazol-3-ol]"
14,91%,"CC(C)Oc1cccc(C[C@@H](C)Oc2ncc(-c3cc(O)no3)cn2)c1 [Example 32, 5-{2-[((1R)-1-methyl-2-{3-[(1-methylethyl)oxy]phenyl}ethyl)oxy]pyrimidin-5-yl}isoxazol-3-01]"
15,90%,CC(C)Oc1ccccc1C(C)COc1ccc(-c2cc(O)no2)c(F)c1 (centres unmarked) [Example 39]

row,Compound,Agonistic activity at 10 μmol/l (%)
1,"CC(C)Oc1cccc(CC(C)Oc2ccc(-c3cc(O)no3)c(F)c2)c1 (centres unmarked) [Example 6, 5-{2-fluoro-4-[2-(3-isopropoxyphenyl)-1-methylethoxy]phenyl}isoxazol-3-01]",98%

# Same assay, conditions: 10 μmol/l test compound, human GPR120 expression CHO cells, Fluo-4 AM, read-out: Agonistic activity at 10 μmol/l (%)
row,activation at 10 µM,Compound
1,104%,"CC(C)Oc1cccc(CC(C)Oc2ccc(-c3cc(O)no3)cc2)c1 (centres unmarked) [Example 1, 5-(4-(2-(3-isopropoxyphenyl)-1-methylethoxy)phenyl)isoxazol-3-ol]"
2,105%,"COc1cccc(C(F)(F)COc2ccc(-c3cc(O)no3)cc2)c1 [Example 3, 5-(4-(2,2-difluoro-2-(3-methoxyphenyl)ethoxy)phenyl)isoxazol-3-ol]"
3,98%,"CC(C)Oc1cccc(C(C)COc2ccc(-c3cc(O)no3)cc2)c1 (centres unmarked) [Example 4, 5-(4-(2-(3-isopropoxyphenyl)propoxy)phenyl)-isoxazol-3-ol]"
4,94%,"CC(C)Oc1cccc(C(C)(C)COc2ccc(-c3cc(O)no3)cc2)c1 [Example 5, 5-(4-(2-methyl-2-(3-isopropoxyphenyl)propoxy)phenyl)-isoxazol-3-ol]"
5,98%,"CC(C)Oc1cccc(CC(C)Oc2ccc(-c3cc(O)no3)cn2)c1 (centres unmarked) [Example 7, 5-(6-(2-(3-isopropoxyphenyl)-1-methylethoxy)pyridin-3-yl)isoxazol-3-ol]"
6,96%,"CC(C)Oc1cccc(CC(C)Oc2ccc(-c3cc(O)no3)nc2)c1 (centres unmarked) [Example 8, 5-(5-(2-(3-isopropoxyphenyl)-1-methylethoxy)pyridin-2-yl)isoxazol-3-ol]"
7,100%,"CC(C)Oc1cccc(CN(C)Cc2ccc(-c3cc(O)no3)cc2)c1 [Example 9, 5-(4-(((3-isopropoxybenzyl)(methyl)amino)methyl)phenyl)isoxazol-3-ol]"
8,93%,"CC(Cc1ccc(-c2cc(O)no2)cc1)Oc1ccccc1 (centres unmarked) [Example 10, 5-(4-(2-phenoxypropyl)phenyl)isoxazol-3-ol]"
9,95%,"COc1cccc(OC(C)Cc2ccc(-c3cc(O)no3)cc2)c1 (centres unmarked) [Example 12, 5-(4-(2-(3-methoxyphenoxy)propyl)phenyl)isoxazol-3-ol]"
10,93%,"CC(Cc1ccc(-c2cc(O)no2)cc1)Oc1cccc(C(F)(F)F)c1 (centres unmarked) [Example 13, 5-(4-(2-(3-(trifluoromethyl)phenoxy)propyl)phenyl)isoxazol-3-ol]"
11,97%,"COc1cc(OC)cc(OC(C)Cc2ccc(-c3cc(O)no3)cc2)c1 (centres unmarked) [Example 15, 5-(4-(2-(3,5-dimethoxyphenoxy)propyl)phenyl)isoxazol-3-ol]"
12,95%,"CC(C)Oc1cccc(C[C@H](C)Oc2ccc(-c3cc(O)no3)cc2)c1 [Example 21, 5-{4-[((1S)-1-methyl-2-{3-[(1-methylethyl)oxy]phenyl}ethyl)oxy]phenyl}isoxazol-3-ol]"
13,101%,"C[C@H](Cc1cccc(OC(F)(F)F)c1)Oc1ccc(-c2cc(O)no2)cc1 [Example 23, 5-{4-[((1R)-1-methyl-2-{3-[(trifluoromethyl)oxy]phenyl}ethyl)oxy]phenyl}isoxazol-3-ol]"
14,86%,"C[C@H](Cc1ccc(OC(F)(F)F)cc1)Oc1ccc(-c2cc(O)no2)cc1 [Example 24, 5-{4-[((1R)-1-methyl-2-{4-[(trifluoromethyl)oxy]phenyl}ethyl)oxy]phenyl}isoxazol-3-ol]"
15,91%,"C[C@H](Cc1ccc(Cl)c(OC(F)(F)F)c1)Oc1ccc(-c2cc(O)no2)cc1 [Example 25, 5-{4-[((1R)-2-{4-chloro-3-[(trifluoromethyl)oxy]phenyl}-1-methylethyl)oxy]phenyl}isoxazol-3-ol]"
16,100%,"CC(C)Oc1cccc(C[C@@H](C)Oc2ccc(-c3cc(O)no3)cn2)c1 [Example 26, 5-{6-[((1R)-1-methyl-2-{3-[(1-methylethyl)oxy]phenyl}ethyl)oxy]pyridin-3-yl}isoxazol-3-ol Hydrochloride]"
17,99%,"CC(C)Oc1cccc(C[C@H](C)Oc2ccc(-c3cc(O)no3)cn2)c1 [Example 27, 5-{6-[((1S)-1-methyl-2-{3-[(1-methylethyl)oxy]phenyl}ethyl)oxy]pyridin-3-yl}isoxazol-3-ol Hydrochloride]"
18,97%,"CC(C)Oc1cccc(C[C@@H](C)Oc2ccc(-c3cc(O)no3)c(F)c2)c1 [Example 28, 5-{2-fluoro-4-[((1R)-1-methyl-2-{3-[(1-methylethyl)oxy]phenyl}ethyl)oxy]phenyl}isoxazol-3-ol]"
19,102%,"CC(C)Oc1cccc(C(F)COc2ccc(-c3cc(O)no3)cc2)c1 (centres unmarked) [Example 29, 5-{4-[(2-fluoro-2-{3-[(1-methylethyl)oxy]phenyl}ethyl)oxy]phenyl}isoxazol-3-ol]"
20,90%,"CCC(Cc1cccc(OC(C)C)c1)Oc1ccc(-c2cc(O)no2)cc1 (centres unmarked) [Example 34, 5-(4-(2-(3-isopropoxyphenyl)-1-ethylethoxy)phenyl)isoxazol-3-ol]"
21,100%,"CC(C)Oc1cccc(C(F)(F)COc2ccc(-c3cc(O)no3)cc2)c1 [Example 36, 5-(4-(2,2-difluoro-2-(3-isopropoxyphenyl)ethoxy)phenyl)isoxazol-3-ol]"
22,97%,"CCOc1cccc(CC(C)Oc2ccc(-c3cc(O)no3)c(F)c2)c1 (centres unmarked) [Example 37, 5-{2-fluoro-4-[2-(3-ethoxyphenyl)-1-methylethoxy]phenyl}isoxazol-3-ol]"
23,92%,"CC(C)Oc1cccc(C(C)(C)COc2ccc(-c3cc(O)no3)c(F)c2)c1 [Example 38, 5-{2-fluoro-4-[2-(3-isopropoxyphenyl)-2-methylpropoxy]phenyl}isoxazol-3-ol]"
24,95%,"CC(C)Oc1cccc(C(C)COc2ccc(-c3cc(O)no3)cn2)c1 (centres unmarked) [Example 40, 5-(6-(2-(3-isopropoxyphenyl)propoxy)pyridin-3-yl)isoxazol-3-ol]"
25,87%,"CC(C)Oc1cccc(C(C)N(C)Cc2ccc(-c3cc(O)no3)cc2)c1 (centres unmarked) [Example 41, 5-(4-{[[1-(3-isopropoxyphenyl)ethyl](methyl)amino]methyl}phenyl)isoxazol-3-ol]"
